Results as given in patent publication US20220046919A1, “SYNERGISTIC INSECTICIDAL COMBINATIONS” (UPL LTD, priority 2019, published 2022).
“Also recorded” adds a separate entry of the source.

Key:
[1] = tested on: Amrasca bigutula bigutula; assay: Field trial: control of Jassids in infected Okra; type: in vivo; details: Denatonium Benzoate alone
Method: (§1) Field trials were conducted to study the effect of the combination of Denatonium benzoate with insecticides. The following three combinations were tested on the control of Jassids species Amrasca bigutula bigutula in the crop of infected Okra (Abelmoschus esculentum L) over the use of insecticides alone. • Denatonium benzoate+Flonicamid • Denatonium benzoate+Thiamethoxam • Denatonium benzoate+Imidacloprid
(§2) Both phytotoxicity and percentage control of the Jassids was measured.
T-1, T-2 and T-3 are the treatment with insecticidal combinations according to the present invention; T-4, T-5 and T-6 are the treatment with insecticides alone; T-7 and T-8 are the treatment with Denatonium benzoate (DB) liquid solutions alone and T-9 is the control.
Bio-efficacy of insecticidal combinations of the present invention against Jassids in infected Okra were evaluated. The percentage control of Jassids was measured. Efficacy was evaluated as: Excellent 91-100%, Very good 81-90%, Good 71-80%, Moderate 51-70%, Poor<50%.

[2] = tested on: Okra (Abelmoschus esculentum L); assay: Phytotoxicity / crop safety on Okra in the field trial; type: in vivo; details: both application rates, 4 ml & 5 ml/lit of water
Method: as §1, §2
The safety of Denatonium Benzoate (DB) combinations according to present invention on Okra was evaluated. It is observed that the DB combinations according to the present invention are safe and no Phytotoxicity is observed.

[3] = cited from earlier work
[4] = in vivo; cited from earlier work

Structure (SMILES): CC[N+](CC)(CC(=O)Nc1c(C)cccc1C)Cc1ccccc1.O=C([O-])c1ccccc1 [Denatonium benzoate, phenylmethyl-[2-[(2,6-dimethylphenyl)amino]-2-oxoethyl]-diethylammonium benzoate]
- control of Jassids / insecticidal activity, in words [1]: no significant control of Jassids; also recorded: does not exhibit any insecticidal activity
- Selectivity: crop safety on okra [2]: Good crop safety
- concentration with generally recognized bitter taste ([3]; in vivo): 50 ppb
- concentration detected by the average person ([3]; taste detection): 10 ppb
- human safety in clinical trials [4]: extremely human safe
